Experimental data published in ChEMBL document CHEMBL4800722, “Data for DCP probe BI 605906” (2021).

What was measured:
[1] = biological target: Histamine H2 receptor (Homo sapiens) (UniProt P25021); settings: Compound concentration 10.0 uM
[2] = biological target: Sigma non-opioid intracellular receptor 1 (Homo sapiens) (UniProt Q99720); settings: Compound concentration 10.0 uM
[3] = biological target: 5-hydroxytryptamine receptor 3A (Homo sapiens) (UniProt P46098); settings: Compound concentration 10.0 uM
[4] = biological target: 5-hydroxytryptamine receptor 6 (Homo sapiens) (UniProt P50406); settings: Compound concentration 10.0 uM
[5] = biological target: Delta-type opioid receptor (Homo sapiens) (UniProt P41143); settings: Compound concentration 10.0 uM
[6] = biological target: 5-hydroxytryptamine receptor 1E (Homo sapiens) (UniProt P28566); settings: Compound concentration 10.0 uM
5-hydroxytryptamine receptor 1E (Homo sapiens), sequence (P28566 whole entry): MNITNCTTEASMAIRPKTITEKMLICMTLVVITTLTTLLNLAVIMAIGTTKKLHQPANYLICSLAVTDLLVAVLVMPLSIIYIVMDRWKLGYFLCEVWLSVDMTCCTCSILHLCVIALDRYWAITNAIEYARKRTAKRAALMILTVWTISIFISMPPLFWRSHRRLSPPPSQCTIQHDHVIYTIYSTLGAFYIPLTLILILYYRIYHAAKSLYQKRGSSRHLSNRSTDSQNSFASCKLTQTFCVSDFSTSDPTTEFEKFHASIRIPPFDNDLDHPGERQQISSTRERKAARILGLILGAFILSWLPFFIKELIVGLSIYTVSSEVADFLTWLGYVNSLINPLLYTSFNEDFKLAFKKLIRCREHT

[7] = biological target: Muscarinic acetylcholine receptor M5 (Homo sapiens) (UniProt P08912); settings: Compound concentration 10.0 uM
[8] = biological target: Muscarinic acetylcholine receptor M1 (Homo sapiens) (UniProt P11229); settings: Compound concentration 10.0 uM
[9] = biological target: 5-hydroxytryptamine receptor 2A (Homo sapiens) (UniProt P28223); settings: Compound concentration 10.0 uM
[10] = biological target: Muscarinic acetylcholine receptor M2 (Homo sapiens) (UniProt P08172); settings: Compound concentration 10.0 uM
Muscarinic acetylcholine receptor M2 (Homo sapiens), sequence (P08172 whole entry): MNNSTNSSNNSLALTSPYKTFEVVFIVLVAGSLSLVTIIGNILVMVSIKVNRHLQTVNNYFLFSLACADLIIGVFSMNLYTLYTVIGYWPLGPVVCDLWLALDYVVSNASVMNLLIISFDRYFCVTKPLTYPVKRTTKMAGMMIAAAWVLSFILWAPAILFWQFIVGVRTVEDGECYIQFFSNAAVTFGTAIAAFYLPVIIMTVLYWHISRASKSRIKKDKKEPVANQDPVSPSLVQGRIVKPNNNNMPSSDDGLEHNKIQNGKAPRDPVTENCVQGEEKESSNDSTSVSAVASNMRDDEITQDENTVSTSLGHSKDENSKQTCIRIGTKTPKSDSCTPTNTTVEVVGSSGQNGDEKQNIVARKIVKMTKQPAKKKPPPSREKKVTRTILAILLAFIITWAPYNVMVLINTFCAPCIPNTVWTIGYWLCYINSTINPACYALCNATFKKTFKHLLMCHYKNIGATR

[11] = biological target: T1, GABA-A receptor; anion channel (Rattus norvegicus) (UniProt O09028+P15431+P18506+P18508+P19969+P20236+P23574+P23576+P28471+P28473+P30191+P62813+P63079+P63138+Q91ZM7+Q9ES14); settings: Compound concentration 10.0 uM
[12] = biological target: Histamine H3 receptor (Homo sapiens) (UniProt Q9Y5N1); settings: Compound concentration 10.0 uM
[13] = biological target: Alpha-1D adrenergic receptor (Homo sapiens) (UniProt P25100); settings: Compound concentration 10.0 uM
[14] = biological target: Sodium-dependent noradrenaline transporter (Homo sapiens) (UniProt P23975); settings: Compound concentration 10.0 uM
Sodium-dependent noradrenaline transporter (Homo sapiens), sequence (P23975 whole entry): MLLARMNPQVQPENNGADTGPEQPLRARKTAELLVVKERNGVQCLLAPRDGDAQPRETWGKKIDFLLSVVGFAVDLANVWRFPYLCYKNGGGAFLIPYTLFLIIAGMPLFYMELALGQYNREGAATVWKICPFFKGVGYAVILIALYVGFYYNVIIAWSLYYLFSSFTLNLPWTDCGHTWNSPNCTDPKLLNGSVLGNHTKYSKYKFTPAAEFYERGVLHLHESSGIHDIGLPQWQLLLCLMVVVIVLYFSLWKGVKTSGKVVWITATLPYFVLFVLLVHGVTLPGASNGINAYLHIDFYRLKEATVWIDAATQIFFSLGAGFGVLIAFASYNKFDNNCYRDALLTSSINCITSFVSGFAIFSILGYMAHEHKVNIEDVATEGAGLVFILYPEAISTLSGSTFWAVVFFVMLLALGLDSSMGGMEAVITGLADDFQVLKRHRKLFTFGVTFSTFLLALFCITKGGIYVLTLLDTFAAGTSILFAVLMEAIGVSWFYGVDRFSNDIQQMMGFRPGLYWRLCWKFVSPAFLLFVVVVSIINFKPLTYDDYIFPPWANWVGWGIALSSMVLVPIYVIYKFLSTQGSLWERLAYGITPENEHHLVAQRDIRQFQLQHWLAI

[15] = biological target: Alpha-2C adrenergic receptor (Homo sapiens) (UniProt P18825); settings: Compound concentration 10.0 uM
[16] = biological target: Alpha-1B adrenergic receptor (Homo sapiens) (UniProt P35368); settings: Compound concentration 10.0 uM
[17] = biological target: T2, D(4) dopamine receptor (Homo sapiens) (UniProt P21917); settings: Compound concentration 10.0 uM
T2 sequence (whole entry): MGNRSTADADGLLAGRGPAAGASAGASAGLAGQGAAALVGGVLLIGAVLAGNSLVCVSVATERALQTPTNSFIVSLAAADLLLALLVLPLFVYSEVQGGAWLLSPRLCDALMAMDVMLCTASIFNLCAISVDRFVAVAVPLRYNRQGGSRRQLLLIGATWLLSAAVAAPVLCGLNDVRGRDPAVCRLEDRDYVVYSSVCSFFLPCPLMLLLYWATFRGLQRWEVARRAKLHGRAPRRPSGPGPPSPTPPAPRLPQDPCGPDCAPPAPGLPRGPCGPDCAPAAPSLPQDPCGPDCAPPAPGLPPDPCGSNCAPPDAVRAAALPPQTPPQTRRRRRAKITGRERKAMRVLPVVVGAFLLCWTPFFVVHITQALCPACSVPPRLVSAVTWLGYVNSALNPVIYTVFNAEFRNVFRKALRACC

[18] = biological target: Muscarinic acetylcholine receptor M4 (Homo sapiens) (UniProt P08173); settings: Compound concentration 10.0 uM
[19] = biological target: T1, GABA-A receptor; anion channel (Rattus norvegicus); settings: Compound concentration 10.0 uM; remark: listed apart in the source
[20] = biological target: Sigma intracellular receptor 2 (Homo sapiens) (UniProt Q5BJF2); settings: Compound concentration 10.0 uM
Sigma intracellular receptor 2 (Homo sapiens), sequence (Q5BJF2 whole entry): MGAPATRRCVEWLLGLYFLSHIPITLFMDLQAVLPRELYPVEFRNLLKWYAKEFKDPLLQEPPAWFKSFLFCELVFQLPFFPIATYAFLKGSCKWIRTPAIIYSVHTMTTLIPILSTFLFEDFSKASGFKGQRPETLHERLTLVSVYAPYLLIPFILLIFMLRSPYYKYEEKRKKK

[21] = biological target: 5-hydroxytryptamine receptor 1D (Homo sapiens) (UniProt P28221); settings: Compound concentration 10.0 uM
[22] = biological target: T3, Sodium-dependent dopamine transporter (Homo sapiens, UniProt Q01959); settings: Compound concentration 10.0 uM
T3 sequence (Q01959 whole entry): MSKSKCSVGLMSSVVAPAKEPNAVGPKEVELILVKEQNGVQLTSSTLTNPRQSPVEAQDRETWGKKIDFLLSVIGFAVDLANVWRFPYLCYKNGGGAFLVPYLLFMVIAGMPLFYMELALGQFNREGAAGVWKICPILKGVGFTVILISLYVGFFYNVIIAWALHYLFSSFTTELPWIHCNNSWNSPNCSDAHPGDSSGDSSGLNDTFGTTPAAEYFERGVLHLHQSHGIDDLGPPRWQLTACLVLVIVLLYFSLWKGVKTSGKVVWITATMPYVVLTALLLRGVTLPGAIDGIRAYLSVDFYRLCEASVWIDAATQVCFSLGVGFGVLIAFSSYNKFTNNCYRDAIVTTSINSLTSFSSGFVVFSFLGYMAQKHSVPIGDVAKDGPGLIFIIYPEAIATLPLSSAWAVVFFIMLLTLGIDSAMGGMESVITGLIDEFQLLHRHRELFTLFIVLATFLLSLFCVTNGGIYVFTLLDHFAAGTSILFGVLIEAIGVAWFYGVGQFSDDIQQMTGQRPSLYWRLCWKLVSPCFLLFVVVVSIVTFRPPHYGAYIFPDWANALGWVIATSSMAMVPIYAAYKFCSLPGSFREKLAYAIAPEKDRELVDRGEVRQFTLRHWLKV

[23] = biological target: Alpha-1A adrenergic receptor (Homo sapiens) (UniProt P35348); settings: Compound concentration 10.0 uM
[24] = biological target: Inhibitor of nuclear factor kappa-B kinase subunit beta (Homo sapiens, UniProt O14920); assay: Biochemical assay
Inhibitor of nuclear factor kappa-B kinase subunit beta, sequence (O14920 whole entry): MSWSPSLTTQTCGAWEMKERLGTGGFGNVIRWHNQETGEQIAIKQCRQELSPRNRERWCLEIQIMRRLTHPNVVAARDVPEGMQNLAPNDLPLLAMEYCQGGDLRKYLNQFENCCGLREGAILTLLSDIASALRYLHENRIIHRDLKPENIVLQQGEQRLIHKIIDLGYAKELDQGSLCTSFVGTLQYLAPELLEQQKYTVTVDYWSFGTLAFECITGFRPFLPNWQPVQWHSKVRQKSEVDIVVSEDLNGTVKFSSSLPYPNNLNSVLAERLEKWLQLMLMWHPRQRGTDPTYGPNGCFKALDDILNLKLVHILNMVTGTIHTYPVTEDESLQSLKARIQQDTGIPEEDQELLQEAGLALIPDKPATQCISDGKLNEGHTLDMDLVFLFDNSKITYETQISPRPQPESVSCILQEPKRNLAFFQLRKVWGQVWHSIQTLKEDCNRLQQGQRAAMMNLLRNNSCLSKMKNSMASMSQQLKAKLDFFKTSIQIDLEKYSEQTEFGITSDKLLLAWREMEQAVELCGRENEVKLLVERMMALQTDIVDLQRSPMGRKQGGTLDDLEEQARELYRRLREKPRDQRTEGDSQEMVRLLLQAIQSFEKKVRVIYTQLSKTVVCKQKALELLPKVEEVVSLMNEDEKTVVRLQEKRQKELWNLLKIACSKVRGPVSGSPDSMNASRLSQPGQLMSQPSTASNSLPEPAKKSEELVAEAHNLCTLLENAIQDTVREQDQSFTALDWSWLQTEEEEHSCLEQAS

[25] = biological target: 5-hydroxytryptamine receptor 7 (Homo sapiens) (UniProt P34969); settings: Compound concentration 10.0 uM
5-hydroxytryptamine receptor 7 (Homo sapiens), sequence (P34969 whole entry): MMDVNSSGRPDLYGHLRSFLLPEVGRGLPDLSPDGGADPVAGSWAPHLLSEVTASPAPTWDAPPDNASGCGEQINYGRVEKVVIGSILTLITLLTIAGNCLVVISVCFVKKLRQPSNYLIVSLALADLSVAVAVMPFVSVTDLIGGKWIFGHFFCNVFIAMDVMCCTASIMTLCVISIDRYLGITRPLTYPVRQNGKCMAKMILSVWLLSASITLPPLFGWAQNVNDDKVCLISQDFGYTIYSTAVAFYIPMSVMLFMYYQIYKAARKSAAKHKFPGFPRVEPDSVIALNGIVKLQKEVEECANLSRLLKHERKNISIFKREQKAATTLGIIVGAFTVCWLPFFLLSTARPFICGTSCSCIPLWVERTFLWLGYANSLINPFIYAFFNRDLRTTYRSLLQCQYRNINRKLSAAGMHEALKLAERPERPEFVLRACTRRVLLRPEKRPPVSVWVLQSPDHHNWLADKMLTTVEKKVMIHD

[26] = biological target: 5-hydroxytryptamine receptor 1A (Homo sapiens) (UniProt P08908); settings: Compound concentration 10.0 uM
[27] = biological target: Histamine H1 receptor (Homo sapiens) (UniProt P35367); settings: Compound concentration 10.0 uM
Histamine H1 receptor (Homo sapiens), sequence (P35367 whole entry): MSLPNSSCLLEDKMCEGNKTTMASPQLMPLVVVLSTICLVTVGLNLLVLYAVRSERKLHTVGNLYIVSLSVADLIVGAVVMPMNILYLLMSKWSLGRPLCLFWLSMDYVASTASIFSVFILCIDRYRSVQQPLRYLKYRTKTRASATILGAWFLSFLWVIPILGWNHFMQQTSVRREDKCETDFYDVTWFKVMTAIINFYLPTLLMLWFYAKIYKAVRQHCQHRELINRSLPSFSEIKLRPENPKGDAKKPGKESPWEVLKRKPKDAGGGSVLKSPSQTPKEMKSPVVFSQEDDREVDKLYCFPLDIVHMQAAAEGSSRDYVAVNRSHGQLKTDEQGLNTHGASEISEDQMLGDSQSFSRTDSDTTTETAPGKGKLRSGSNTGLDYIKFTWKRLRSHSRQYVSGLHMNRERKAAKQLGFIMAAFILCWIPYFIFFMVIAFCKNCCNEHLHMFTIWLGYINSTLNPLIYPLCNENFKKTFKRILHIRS

[28] = biological target: 5-hydroxytryptamine receptor 2B (Homo sapiens) (UniProt P41595); settings: Compound concentration 10.0 uM
5-hydroxytryptamine receptor 2B (Homo sapiens), sequence (P41595 whole entry): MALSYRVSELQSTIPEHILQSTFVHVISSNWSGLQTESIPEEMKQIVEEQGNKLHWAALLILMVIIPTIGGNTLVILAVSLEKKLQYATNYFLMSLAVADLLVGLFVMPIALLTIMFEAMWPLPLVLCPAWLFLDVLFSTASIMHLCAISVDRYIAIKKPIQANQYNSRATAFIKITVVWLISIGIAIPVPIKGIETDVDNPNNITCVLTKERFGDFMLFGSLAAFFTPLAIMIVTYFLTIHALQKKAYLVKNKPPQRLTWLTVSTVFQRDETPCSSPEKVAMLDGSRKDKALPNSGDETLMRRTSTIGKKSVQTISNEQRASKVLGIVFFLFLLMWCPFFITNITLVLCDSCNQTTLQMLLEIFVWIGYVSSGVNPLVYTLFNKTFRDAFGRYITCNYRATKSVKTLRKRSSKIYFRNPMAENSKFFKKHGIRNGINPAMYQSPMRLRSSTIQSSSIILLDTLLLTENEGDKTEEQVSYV

[29] = biological target: T3, Sodium-dependent dopamine transporter; assay: GPCRScan assay: inhibition of DAT; design: radioligand conc. used [nm] 3.6 – 16.0, parental cells stable HEK
[30] = biological target: Kappa-type opioid receptor (Homo sapiens) (UniProt P41145); settings: Compound concentration 10.0 uM
[31] = biological target: Alpha-2A adrenergic receptor (Homo sapiens) (UniProt P08913); settings: Compound concentration 10.0 uM
[32] = biological target: D(2) dopamine receptor (Homo sapiens) (UniProt P14416); settings: Compound concentration 10.0 uM
[33] = biological target: 5-hydroxytryptamine receptor 5A (Homo sapiens) (UniProt P47898); settings: Compound concentration 10.0 uM
[34] = biological target: 5-hydroxytryptamine receptor 2C (Homo sapiens) (UniProt P28335); settings: Compound concentration 10.0 uM
[35] = biological target: Alpha-2B adrenergic receptor (Homo sapiens) (UniProt P18089); settings: Compound concentration 10.0 uM
[36] = biological target: D(1A) dopamine receptor (Homo sapiens) (UniProt P21728); settings: Compound concentration 10.0 uM
[37] = biological target: Sodium-dependent serotonin transporter (Homo sapiens) (UniProt P31645); settings: Compound concentration 10.0 uM
[38] = biological target: Beta-2 adrenergic receptor (Homo sapiens) (UniProt P07550); settings: Compound concentration 10.0 uM
[39] = biological target: Mu-type opioid receptor (Homo sapiens) (UniProt P35372); settings: Compound concentration 10.0 uM
[40] = biological target: Muscarinic acetylcholine receptor M3 (Homo sapiens) (UniProt P20309); settings: Compound concentration 10.0 uM
Rattus norvegicus = species on record: Rattus norvegicus; settings: Compound concentration 10.0 uM

Histamine H2 receptor (Homo sapiens), sequence (P25021 whole entry): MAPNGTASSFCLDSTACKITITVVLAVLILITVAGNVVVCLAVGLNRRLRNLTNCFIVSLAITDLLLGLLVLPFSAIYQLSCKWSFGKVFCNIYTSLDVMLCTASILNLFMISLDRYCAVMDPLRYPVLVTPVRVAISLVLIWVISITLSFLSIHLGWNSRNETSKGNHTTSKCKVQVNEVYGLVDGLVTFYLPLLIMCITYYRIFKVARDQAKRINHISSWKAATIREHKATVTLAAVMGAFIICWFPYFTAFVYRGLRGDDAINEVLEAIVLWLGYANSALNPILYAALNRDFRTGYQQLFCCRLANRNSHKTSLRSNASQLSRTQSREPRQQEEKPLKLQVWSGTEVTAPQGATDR

An inhibition [1] of -1.35%, an inhibition [2] of 31.5% and an inhibition [3] of 10.3% were found for `CN(C)C(=O)c1sc2nc(N3CCC(S(C)(=O)=O)CC3)cc(C(F)(F)F)c2c1N` [BI-5026] in this work. For the same molecule, the inhibition [4] was 24.2%, the inhibition [5] was 8.58% and the inhibition [6] was 2.45%. For the same molecule, the inhibition [7] was -6.93%, the inhibition [8] was 0.25% and the inhibition [9] was -1.79%. The inhibition [10] was 13.4%, the inhibition [11] was 3.61% and the inhibition [12] was -1.1%. The inhibition [13] was 7.27%, the inhibition [14] was 1.7% and the inhibition [15] was 2.96%. It also gave an inhibition [16] of -7.86%, an inhibition [17] of 4.15% and an inhibition [18] of 3.63%. For the same molecule, the inhibition [19] was 13.5%, the inhibition [20] was 70.6% and the inhibition [21] was 6.7%. The inhibition [22] was 80.5%, the inhibition [23] was 22.8% and the IC50 [24] was > 10 µM (not active). It also gave an inhibition [25] of 2.32%, an inhibition [26] of 40.6% and an inhibition [27] of 24.5%. It also gave an inhibition [28] of 47.5%, a Ki ([29]; read-out: Ki) of 4.27 µM and a Ki ([29]; read-out: pKi (converted)) of 4.27 µM. It also gave an inhibition [30] of 9.53%, an inhibition [31] of 13% and an inhibition [32] of 1.12%. It also gave an inhibition [33] of 5.35%, an inhibition [34] of 11.6% and an inhibition [35] of 3.36%. The inhibition [36] was 1.22%, the inhibition [37] was 18.1% and the inhibition [38] was 6.22%. For the same molecule, the inhibition [39] was 22.4%, the inhibition [40] was 7.05% and the inhibition (Rattus norvegicus) was 27.9%.
